Data as given in ChEMBL document CHEMBL4706552, “Discovery of 4-methyl-N-(4-((4-methylpiperazin- 1-yl)methyl)-3-(trifluoromethyl)phenyl)-3-((6-(pyridin-3-yl)-1H-pyrazolo[3,4-d]pyrimidin-4-yl)-oxy)benzamide as a potent inhibitor of RET and its gatekeeper mutant” (Eur J Med Chem, 2020).
Activity calls are given as the source filed them. The calls are words filed in the database; no cut-off is given here.

Tests used:
[1] = Cmax in Sprague-Dawley rat at 1 mg/kg, iv; type: ADME, organism-based; parameters: route intravenous, dose 1 mg/kg; settings: in vivo
[2] = biological target: T1, Coiled-coil domain-containing protein 6/Tyrosine-protein kinase receptor RET (Homo sapiens) (UniProt P07949+Q16204); test: Inhibition of CCDC6-RET fusion protein (unknown origin) expressed in mouse BaF3 cells assessed as reduction in ERK phosphorylation at 10 to 500 nM measured after 4 hrs by Western blot analysis; type: cell-based; settings: dose 10-500 nM
T1 sequence (P07949 29-1114 limits assumed): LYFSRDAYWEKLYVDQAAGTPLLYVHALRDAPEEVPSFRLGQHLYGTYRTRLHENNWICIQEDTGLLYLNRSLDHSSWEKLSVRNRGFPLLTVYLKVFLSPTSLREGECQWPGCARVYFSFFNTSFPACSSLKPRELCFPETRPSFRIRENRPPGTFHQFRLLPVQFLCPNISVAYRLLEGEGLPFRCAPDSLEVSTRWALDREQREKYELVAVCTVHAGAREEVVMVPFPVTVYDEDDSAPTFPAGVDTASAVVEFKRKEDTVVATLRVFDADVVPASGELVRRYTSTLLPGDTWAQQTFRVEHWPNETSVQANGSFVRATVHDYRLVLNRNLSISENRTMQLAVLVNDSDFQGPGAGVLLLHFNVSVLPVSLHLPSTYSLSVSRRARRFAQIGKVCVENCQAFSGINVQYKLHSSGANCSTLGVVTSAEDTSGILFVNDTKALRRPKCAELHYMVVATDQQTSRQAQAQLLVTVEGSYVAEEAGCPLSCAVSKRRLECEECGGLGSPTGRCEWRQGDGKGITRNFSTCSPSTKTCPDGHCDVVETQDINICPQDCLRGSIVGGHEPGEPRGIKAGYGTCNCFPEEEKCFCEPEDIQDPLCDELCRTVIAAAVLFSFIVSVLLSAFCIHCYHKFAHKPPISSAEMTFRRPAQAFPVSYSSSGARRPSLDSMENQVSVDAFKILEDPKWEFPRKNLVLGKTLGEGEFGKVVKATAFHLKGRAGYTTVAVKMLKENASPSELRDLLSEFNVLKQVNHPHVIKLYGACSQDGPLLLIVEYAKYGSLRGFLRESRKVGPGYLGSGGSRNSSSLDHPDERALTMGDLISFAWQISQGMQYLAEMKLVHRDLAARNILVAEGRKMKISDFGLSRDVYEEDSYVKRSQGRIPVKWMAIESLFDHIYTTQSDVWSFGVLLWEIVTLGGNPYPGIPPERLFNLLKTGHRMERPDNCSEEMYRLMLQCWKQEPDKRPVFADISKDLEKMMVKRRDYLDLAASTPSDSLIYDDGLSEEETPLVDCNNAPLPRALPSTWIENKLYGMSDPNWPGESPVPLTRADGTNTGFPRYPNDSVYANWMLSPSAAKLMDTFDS
T1 sequence (Q16204 2-474 partner limits assumed): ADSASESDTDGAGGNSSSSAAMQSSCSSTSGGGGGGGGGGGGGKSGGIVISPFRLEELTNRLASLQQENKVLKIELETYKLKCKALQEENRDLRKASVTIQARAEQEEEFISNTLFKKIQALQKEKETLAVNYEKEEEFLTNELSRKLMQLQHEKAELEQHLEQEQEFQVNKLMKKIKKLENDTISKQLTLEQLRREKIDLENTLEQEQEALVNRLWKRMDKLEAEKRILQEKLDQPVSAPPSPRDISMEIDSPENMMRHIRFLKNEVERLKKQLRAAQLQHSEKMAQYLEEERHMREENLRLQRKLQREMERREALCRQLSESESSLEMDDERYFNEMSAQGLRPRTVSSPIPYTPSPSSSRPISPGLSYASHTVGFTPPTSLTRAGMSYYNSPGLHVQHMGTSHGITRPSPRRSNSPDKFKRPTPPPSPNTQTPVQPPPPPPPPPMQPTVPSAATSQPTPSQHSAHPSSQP

[3] = biological target: T1, Coiled-coil domain-containing protein 6/Tyrosine-protein kinase receptor RET (Homo sapiens); test: Inhibition of CCDC6-RET fusion protein in human LC-2-ad cells assessed as reduction in cell proliferation measured after 48 hrs by MTS assay; type: cell-based
[4] = biological target: T2, Proto-oncogene tyrosine-protein kinase receptor Ret (Homo sapiens, UniProt P07949); test: Inhibition of RET phosphorylation in human LC-2-ad cells; type: cell-based
T2 sequence (P07949 whole entry, the tested form may be a part): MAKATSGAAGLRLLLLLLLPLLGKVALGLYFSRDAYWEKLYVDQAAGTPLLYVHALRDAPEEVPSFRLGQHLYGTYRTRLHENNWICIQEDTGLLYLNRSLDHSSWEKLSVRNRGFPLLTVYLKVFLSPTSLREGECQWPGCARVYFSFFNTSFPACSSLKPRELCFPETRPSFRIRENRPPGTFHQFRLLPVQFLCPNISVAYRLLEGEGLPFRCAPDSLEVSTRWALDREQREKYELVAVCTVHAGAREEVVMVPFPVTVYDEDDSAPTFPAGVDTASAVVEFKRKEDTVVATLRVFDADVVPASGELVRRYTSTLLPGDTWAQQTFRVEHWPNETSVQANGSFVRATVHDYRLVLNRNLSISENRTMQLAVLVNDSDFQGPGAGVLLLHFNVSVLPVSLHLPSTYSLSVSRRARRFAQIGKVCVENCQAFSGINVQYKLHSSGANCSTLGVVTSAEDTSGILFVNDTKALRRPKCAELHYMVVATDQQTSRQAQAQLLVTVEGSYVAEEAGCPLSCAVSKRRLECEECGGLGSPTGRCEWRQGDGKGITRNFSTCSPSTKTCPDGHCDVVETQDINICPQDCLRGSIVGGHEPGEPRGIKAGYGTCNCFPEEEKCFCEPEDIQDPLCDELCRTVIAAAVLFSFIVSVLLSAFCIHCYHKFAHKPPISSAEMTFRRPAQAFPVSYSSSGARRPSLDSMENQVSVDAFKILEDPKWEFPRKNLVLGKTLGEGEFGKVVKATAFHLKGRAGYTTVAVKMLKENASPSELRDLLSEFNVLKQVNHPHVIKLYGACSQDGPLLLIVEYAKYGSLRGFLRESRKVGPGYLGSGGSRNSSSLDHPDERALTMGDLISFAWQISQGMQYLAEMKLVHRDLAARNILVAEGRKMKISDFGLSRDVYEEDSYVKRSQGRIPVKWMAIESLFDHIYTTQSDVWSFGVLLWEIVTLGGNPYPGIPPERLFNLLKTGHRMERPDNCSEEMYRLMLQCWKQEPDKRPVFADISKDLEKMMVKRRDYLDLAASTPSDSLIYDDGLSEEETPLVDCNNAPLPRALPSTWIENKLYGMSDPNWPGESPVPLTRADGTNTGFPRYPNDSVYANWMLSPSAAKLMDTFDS

[5] = tested on: BaF3; test: Inhibition of CCDC6-RET V804M mutant fusion protein (unknown origin) expressed in mouse BaF3 cells assessed as reduction in SHC phosphorylation at 10 to 500 nM measured after 4 hrs by Western blot analysis; type: cell-based; settings: Homo sapiens, dose 10-500 nM
[6] = biological target: T3, Kinesin-1 heavy chain/ Tyrosine-protein kinase receptor RET (Homo sapiens) (UniProt P07949+P33176); test: Inhibition of KIF5B-RET fusion protein (unknown origin) expressed in mouse BaF3 cells assessed as reduction in RET autophosphorylation at 50 nM measured after 4 hrs by Western blot analysis; type: cell-based
T3 sequence (P07949 29-1114 limits assumed): as the sequence (P07949 29-1114 limits assumed) above
T3 sequence (P33176 2-963 partner limits assumed): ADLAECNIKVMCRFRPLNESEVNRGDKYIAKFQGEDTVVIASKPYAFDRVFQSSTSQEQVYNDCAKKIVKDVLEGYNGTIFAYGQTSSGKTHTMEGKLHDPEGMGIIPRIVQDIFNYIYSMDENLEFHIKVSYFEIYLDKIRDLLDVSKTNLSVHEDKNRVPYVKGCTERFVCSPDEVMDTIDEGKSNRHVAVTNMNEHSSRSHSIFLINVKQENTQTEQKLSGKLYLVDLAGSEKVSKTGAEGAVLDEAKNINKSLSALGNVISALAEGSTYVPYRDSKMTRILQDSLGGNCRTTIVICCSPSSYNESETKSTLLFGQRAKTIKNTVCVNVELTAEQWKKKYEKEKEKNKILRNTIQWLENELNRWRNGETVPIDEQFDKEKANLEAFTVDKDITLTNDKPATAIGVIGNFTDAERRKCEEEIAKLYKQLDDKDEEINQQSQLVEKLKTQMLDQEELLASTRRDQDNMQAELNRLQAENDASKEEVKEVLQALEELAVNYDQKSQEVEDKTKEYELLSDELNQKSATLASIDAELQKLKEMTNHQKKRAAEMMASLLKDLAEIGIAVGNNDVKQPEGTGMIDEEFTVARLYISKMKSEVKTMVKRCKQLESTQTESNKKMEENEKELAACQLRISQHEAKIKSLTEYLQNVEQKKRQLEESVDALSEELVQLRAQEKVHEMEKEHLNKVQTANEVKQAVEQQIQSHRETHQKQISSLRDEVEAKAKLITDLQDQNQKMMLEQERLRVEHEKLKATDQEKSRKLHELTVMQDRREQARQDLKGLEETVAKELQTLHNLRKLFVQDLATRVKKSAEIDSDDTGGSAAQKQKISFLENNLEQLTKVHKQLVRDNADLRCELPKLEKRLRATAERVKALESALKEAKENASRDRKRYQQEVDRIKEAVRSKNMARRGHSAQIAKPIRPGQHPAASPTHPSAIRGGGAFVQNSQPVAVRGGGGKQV

[7] = tested on: BaF3; test: Induction of apoptosis in KIF5B-RET V804M mutant fusion protein expressing mouse BaF3 cells implanted in BALB/c mouse assessed as increase in cleaved PARP level at 30 to 50 mg/kg, iv administered once daily for 7 days measured 4 hrs post last dose by Western blot analysis; type: functional, organism-based; settings: dose 30-50 mg/kg, time 7.0 day
[8] = tested on: Proto-oncogene tyrosine-protein kinase receptor Ret (Homo sapiens), P07949 [V804L]; test: Binding affinity to wild-type human partial length RET V804L mutant (E713 to D1014 residues) expressed in bacterial expression system assessed as residual binding level at 1 uM by kinomescan method relative to control
[9] = biological target: Proto-oncogene tyrosine-protein kinase receptor Ret (Homo sapiens, UniProt P07949, M918T); test: Inhibition of recombinant human N-terminal GST-HIS6 fused RET M918T mutant C-terminal domain (H658 to S1114 residues) expressed in Sf9 insect cells using TRK-C-derived peptide as substrate in presence of [33P]-ATP by filter binding assay
[10] = tested on: Kinesin-1 heavy chain/ Tyrosine-protein kinase receptor RET (Homo sapiens), P07949+P33176 [V804M]; test: Inhibition of KIF5B-RET V804M mutant fusion protein (unknown origin) expressed in mouse BaF3 cells assessed as reduction in […] measured after 4 hrs by Western blot analysis; type: cell-based
[11] = Antiproliferative activity against human SKGT4 cells measured after 48 hrs by MTS assay; type: functional
[12] = biological target: T3, Kinesin-1 heavy chain/ Tyrosine-protein kinase receptor RET (Homo sapiens); test: Inhibition of KIF5B-RET fusion protein (unknown origin) expressed in mouse BaF3 cells assessed as reduction in cell proliferation measured after 48 hrs by MTS assay; type: cell-based
[13] = biological target: Coiled-coil domain-containing protein 6/Tyrosine-protein kinase receptor RET (Homo sapiens, UniProt P07949); test: Inhibition of human N-terminal GST-HIS6 fused CCDC6-RET fusion protein (Met1 to Ser503 residues) expressed in Sf9 insect cells using TRK-C-derived peptide as substrate in presence of [33P]-ATP by filter binding assay
[14] = tested on: MDA-MB-231; test: Antiproliferative activity against human MDA-MB-231 cells measured after 48 hrs by MTS assay; type: functional
[15] = tested on: Kinesin-1 heavy chain/ Tyrosine-protein kinase receptor RET (Homo sapiens), P07949+P33176 [V804M]; test: Inhibition of KIF5B-RET V804M mutant fusion protein (unknown origin) expressed in mouse BaF3 cells assessed as reduction in cell proliferation measured after 48 hrs by MTS assay; type: cell-based
[16] = biological target: Proto-oncogene tyrosine-protein kinase receptor Ret (Homo sapiens, UniProt P07949, V804M); test: Inhibition of recombinant human N-terminal GST-HIS6 fused RET V804M mutant C-terminal domain (H658 to S1114 residues) expressed in Sf9 insect cells using TRK-C-derived peptide as substrate in presence of [33P]-ATP by filter binding assay
[17] = Half life in Sprague-Dawley rat at 10 mg/kg, po; type: ADME, organism-based; settings: in vivo
[18] = Cmax in Sprague-Dawley rat at 10 mg/kg, po; type: ADME, organism-based; parameters: route oral, dose 10 mg/kg; settings: in vivo
[19] = biological target: Kinesin-1 heavy chain/ Tyrosine-protein kinase receptor RET (Homo sapiens, UniProt P07949); test: Inhibition of KIF5B-RET fusion protein (unknown origin) by radiometric assay
[20] = tested on: BaF3; test: Antitumor activity against KIF5B-RET V804M mutant fusion protein expressing mouse BaF3 cells implanted in iv dosed BALB/c mouse assessed as tumor growth inhibition administered once daily for 7 days; type: functional, organism-based; settings: dose 30-50 mg/kg, time 7.0 day
[21] = Oral bioavailability in Sprague-Dawley rat at 10 mg/kg; type: ADME, organism-based; settings: in vivo
[22] = tested on: BaF3; test: Induction of apoptosis in KIF5B-RET fusion protein expressing mouse BaF3 cells implanted in BALB/c mouse assessed as increase in cleaved PARP level at 30 to 50 mg/kg, iv administered once daily for 7 days measured 4 hrs post last dose by Western blot analysis; type: functional, organism-based; settings: dose 30-50 mg/kg, time 7.0 day
[23] = tested on: Mus musculus; test: In vivo inhibition of KIF5B-RET V804M mutant fusion protein in BALB/c mouse implanted with KIF5B-RET V804M mutant fusion protein expressing mouse BaF3 cells assessed as reduction in SHC phosphorylation at 30 to 50 mg/kg, iv administered daily for 7 days and measured 4 hrs post last dose by Western blot analysis; type: functional, organism-based; settings: dose 30-50 mg/kg, time 7.0 day
[24] = tested on: KYSE-450; test: Antiproliferative activity against human KYSE-450 cells at 3.3 uM measured after 48 hrs by MTS assay; type: functional; settings: read-out: GI
[25] = tested on: BaF3; test: Inhibition of CCDC6-RET V804M mutant fusion protein (unknown origin) expressed in mouse BaF3 cells assessed as reduction in ERK phosphorylation at 10 to 500 nM measured after 4 hrs by Western blot analysis; type: cell-based; settings: Homo sapiens, dose 10-500 nM
[26] = Tmax in Sprague-Dawley rat at 1 mg/kg, iv; type: ADME, organism-based; settings: in vivo
[27] = tested on: BaF3; test: Antitumor activity against KIF5B-RET fusion protein expressing mouse BaF3 cells implanted in BALB/c mouse assessed as tumor growth inhibition at 30 to 50 mg/kg, iv administered once daily for 7 days relative to control; type: functional; settings: dose 30-50 mg/kg, time 7 day
[28] = tested on: BGC-823; test: Antiproliferative activity against human BGC-823 cells at 3.3 uM measured after 48 hrs by MTS assay; type: functional; settings: read-out: GI
[29] = biological target: T2, Proto-oncogene tyrosine-protein kinase receptor Ret; test: Inhibition of RET in human LC-2-ad cells assessed as reduction in SHC phosphorylation; type: cell-based
[30] = tested on: NCI-H3122; test: Antiproliferative activity against human NCI-H3122 cells measured after 48 hrs by MTS assay; type: functional
[31] = tested on: BaF3; test: Inhibition of CCDC6-RET V804M mutant fusion protein (unknown origin) expressed in mouse BaF3 cells assessed as reduction in RET phosphorylation at 10 to 500 nM measured after 4 hrs by Western blot analysis; type: cell-based; settings: Homo sapiens, dose 10-500 nM
[32] = tested on: Proto-oncogene tyrosine-protein kinase receptor Ret (Homo sapiens), P07949 [M918T]; test: Binding affinity to wild-type human partial length RET M918T mutant (E713 to D1014 residues) expressed in bacterial expression system assessed as residual binding level at 1 uM by kinomescan method relative to control

Cc1ccc(C(=O)Nc2ccc(CN3CCN(C)CC3)c(C(F)(F)F)c2)cc1Oc1nc(-c2cccnc2)nc2[nH]ncc12
Cmax [1]: 6.1 µg/mL | inhibition [2]: Active | GI50 [3]: 0.038 µM | inhibition [4]: Active | inhibition [5]: Active | inhibition [6]: Dose-dependent effect | Activity [7]: Active | Activity [8]: 0.8% | IC50 [9]: 0.00842 µM | inhibition [10]: Dose-dependent effect | GI50 [11]: 5.37 µM | GI50 [12]: 0.017 µM | IC50 [13]: 0.00543 µM | GI50 [14]: 2.43 µM | GI50 [15]: 0.021 µM | IC50 [16]: 0.00786 µM | half-life [17]: 7.59 h | Cmax [18]: 0.194 µg/mL | IC50 [19]: 0.00886 µM | Activity [20]: Dose-dependent effect | bioavailability [21]: 3% | Activity [22]: Active | inhibition [23]: Dose-dependent effect | inhibition of growth at 3.3 µM [24]: 39% | inhibition [25]: Active | Tmax [26]: 4.98 min | TGI [27]: >60% | inhibition of growth at 3.3 µM [28]: 39% | inhibition [29]: Active | GI50 [30]: 5.68 µM | inhibition [31]: Active | Activity [32]: 0%
